Reference: patent publication EP0114908A1, “Finely pulverized 2,4-diamino-6-(2,5-dichlorophenyl)-1,3,5-triazine and pharmaceutically acceptable acid addition salts thereof” (NIPPON SHINYAKU COMPANY, LIMITED, priority 1983, dated 1984)
Several values for one entry are separate records, joined by “and”; a condition that tells them apart may be missing. Equal entries are not always repeated. Where two headings read alike, the source gives them in different places.

Legend:
Type in all cases: in vivo
male rats = experiment: toxicity on intraperitoneal injection (LD50); conditions: for LD50: injected intraperitoneally, male rats, limits given in brackets
Excerpt: This decrease in toxicity is totally unexpected and represents a significant and important advance in the art.

[1] = test system: ulcer formation induced by stress; experiment: stress ulcer in rats, immobilization-water immersion method; conditions: for activity on ulcer formation induced by stress: orally; for Inhibition Rate / ED50: stress ulcer; for ED50: per os
Excerpt: Since 50 microns is a common particle diameter in pharmaceutical preparations, it was most surprising that such significant and important advantages accrued according to the present invention. Inhibition activity against stress ulcer in rats of the compound and pharmaceutically acceptable acid additio salts in the finely pulverized form of the present invention are set forth in Table 2.

[2] = body weight increase inhibition on chronic oral administration; conditions: rats; compared with a maleate salt having an average particle diameter of about 50 microns
Method: A further advantage results from body weight increase inhibition which is one of the main side effects of the compound and salts of the present invention. When 10 mg/kg or more per day of either the compound or maleate salt is chronically administered to rats orally, body weight increase is inhibited. This is a side effect of triazines of this type. […] However, when the compound or a pharmaceutically acceptable acid addition salt thereof according to the present invention having an average particle diameter of about 8 microns was administered, the appearance of the side effect was only transient and moderate and the recovery of body weight was far faster as compared to that occurring when the compound was administered having an average particle diameter of about 50 microns.
The average particle sizes were 8 microns for the compound according to the present invention as compared to the same compound having an average particle diameter of 50 microns.

For Nc1nc(N)nc(-c2cc(Cl)ccc2Cl)n1 [2,4-diamino-6-(2,5-dichlorophenyl)-1,3,5-triazine], the LD50 (male rats) was 495 mg/kg, the LD50 (male rats; listed as the same compound having an average particle diameter of about 50 microns) was 1740 mg/kg and the “activity on ulcer formation induced by stress” value ([1]; dosage of 5 mg/kg) was “ineffective”. For the same molecule, the “Inhibition Rate” value ([1]; 0.37 mg/kg per os, three values, 0.37 mg/kg) was 37% and 46% and 29% and the “Inhibition Rate” value ([1]; 3.72 mg/kg per os, three values, 3.72 mg/kg) was 62% and 47% and 33%.
In the case of Nc1nc(N)nc(-c2cc(Cl)ccc2Cl)n1 [Substance (I), 2,4-diamino-6-(2,5-dichlorophenyl)-1,3,5-triazine], the rats killed (male rats; intraperitoneal injection, dosages up to 3000 mg/kg) was “no rats were killed”, the ED50 ([1]; Rattus norvegicus, po, determined from the data of Table 2, read-out: ED50) was 1.22 mg/kg and the “activity on ulcer formation induced by stress” value ([1]; dosage of 1 mg/kg) was “effective”. The “Inhibition Rate” value ([1]; 0.3 mg/kg) was 33%, the “Inhibition Rate” value ([1]; 1.0 mg/kg) was 45% and the “Inhibition Rate” value ([1]; 3.0 mg/kg) was 63%. For the same molecule, the “Inhibition Rate” value ([1]; 10 mg/kg) was 70% and the “Inhibition Rate” value ([1]; 30 mg/kg) was 85%.
For Nc1nc(N)nc(-c2cc(Cl)ccc2Cl)n1 [Substance (II), 2,4-diamino-6-(2,5-dichlorophenyl)-1,3,5-triazine], the “improvement in body weight side effect” value [2] was “particularly dramatic”, the LD50 (male rats; listed as the maleate salt according to the present invention) was 835 mg/kg and the “Inhibition Rate” value ([1]; 0.3 mg/kg) was 35%. The “Inhibition Rate” value ([1]; 1.0 mg/kg) was 51%, the “Inhibition Rate” value ([1]; 3.0 mg/kg) was 70% and the “Inhibition Rate” value ([1]; 10 mg/kg) was 85%. It also gave an ED50 ([1]; determined from the data of Table 2) of 0.90 mg/kg.
